Assay results as given in publication PMC9304322, “Targeting retinoic acid receptor alpha-corepressor interaction activates chaperone-mediated autophagy and protects against retinal degeneration” (Nature Communications, 2022).
Several values for one entry are separate records, joined by “and”; a condition that tells them apart may be missing. Identical values can stand only once.

How the values were obtained:
[1] = system: NIH3T3 stably expressing the KFERQ-PS-Dendra; test: CMA activity, KFERQ-PS-Dendra fluorescent reporter in NIH3T3 mouse fibroblasts; format: cell-based; design: CMA activity (Fig. 1d), MEAN / CMA activity (Fig. 1e-g), mean / CMA activity (Fig. 1d), individual experiments / CMA activity, mean (Fig. S2c, second panel) / CMA activity, mean (Fig. S2c, first panel) / CMA activity, mean (Fig. S2c, third panel): unit not given here; conditions: for CMA activity (Fig. 1e-g), mean: n = 4; for CMA activity, mean (Fig. S2c, first panel) / CMA activity, mean (Fig. S2c, second panel) / CMA activity, mean (Fig. S2c, third panel): compound and cell type of panel not shown
Description: (§1) Cells were transduced with lentivirus carrying the KFERQ-PS-Dendra reporter as before. Cells were photoactivated by exposure to a 3.5 mA (current constant) light emitting diode (LED: Norlux, 405 nm) for 3 min and then plated in glass-bottom 96 well plates. At the desired times, cells were fixed with 4% PFA and imaged using high-content microscopy (Operetta system, Perkin Elmer). Images were quantified using the manufacturer’s software in a minimum of 1,200 cells in 9 independent fields per well. […] This was particularly important in the case of primary human cells where the efficiency of transduction was ~65%. To avoid confounding effects for drug-induced changes in cell volume or adherence to the plate that could bring a fraction of the cells per field outside of focus, we set a threshold to count only […] that have at least 1/10 of the average number of […] detected in the untreated wells for each cell type (3–4 puncta/cell in the case of NIH3T3 and N2a cells and 5 puncta/cell in primary human fibroblasts).

[2] = system: neuroblastoma cell line N2a expressing the KFERQ-PS-Dendra reporter; test: CMA activity, KFERQ-PS-Dendra reporter in N2a cells; format: cell-based, mouse; conditions: 12+12w
Description: as §1

[3] = concentration 10 (unit not given)
[4] = concentration 15 (unit not given)
[5] = concentration 20 (unit not given)
[6] = concentration 25 (unit not given)
[7] = concentration 30 (unit not given)
[8] = concentration 40 (unit not given)
[9] = concentration 50 (unit not given)

## Clc1ccc2c(c1)OCC(c1ccc(-c3ccccc3)cc1)=N2 [CA39]
[1]; 20 μM of each compound, n = 3 independent experiments
  CMA activity (Fig. 1d), MEAN: 4.580
[1]; 20 μM of each compound, single experiments
  CMA activity (Fig. 1d), individual experiments: 5.482 and 4.270 and 3.988
[1]; 12h, concentration 0.02 (unit not given)
  CMA activity (Fig. 1e-g), mean: 3.045
[1]; 12h, concentration 0.2
  CMA activity (Fig. 1e-g), mean: 3.489
[1]; 12h, concentration 2
  CMA activity (Fig. 1e-g), mean: 3.493
[1]; 12h, concentration 5
  CMA activity (Fig. 1e-g), mean: 8.168
[1]; 12h, concentration 10
  CMA activity (Fig. 1e-g), mean: 10.4134
[1]; 12h, concentration 20
  CMA activity (Fig. 1e-g), mean: 22.9828
[1]; 12h, concentration 30
  CMA activity (Fig. 1e-g), mean: 30.7253
[1]; 12h, concentration 40
  CMA activity (Fig. 1e-g), mean: 33.0782
[1]; 12h, concentration 50
  CMA activity (Fig. 1e-g), mean: 21.8692
[1]; 24h, concentration 0.02
  CMA activity (Fig. 1e-g), mean: 3.576
[1]; 24h, concentration 0.2
  CMA activity (Fig. 1e-g), mean: 3.419
[1]; 24h, concentration 2
  CMA activity (Fig. 1e-g), mean: 5.488
[1]; 24h, concentration 5
  CMA activity (Fig. 1e-g), mean: 11.6083
[1]; 24h, concentration 10
  CMA activity (Fig. 1e-g), mean: 17.8717
[1]; 24h, concentration 20
  CMA activity (Fig. 1e-g), mean: 34.1318
[1]; 24h, concentration 30
  CMA activity (Fig. 1e-g), mean: 35.2802
[1]; 24h, concentration 40
  CMA activity (Fig. 1e-g), mean: 50.2311
[1]; 24h, concentration 50
  CMA activity (Fig. 1e-g), mean: 60.1885
[1]; concentration 0.2, 12+12w (12 h, then 12 h after washing out)
  CMA activity (Fig. 1h-j), mean, untreated (0) = 1: 1.104
[1]; concentration 0.2, 12h
  CMA activity (Fig. 1h-j), mean, untreated (0) = 1: 0.9726
[1]; concentration 0.2, 24h
  CMA activity (Fig. 1h-j), mean, untreated (0) = 1: 1.209
[1]; concentration 2, 12+12w
  CMA activity (Fig. 1h-j), mean, untreated (0) = 1: 1.202
[1]; concentration 2, 12h
  CMA activity (Fig. 1h-j), mean, untreated (0) = 1: 0.9735
[1]; concentration 2, 24h
  CMA activity (Fig. 1h-j), mean, untreated (0) = 1: 1.941
[1]; concentration 5, 12+12w
  CMA activity (Fig. 1h-j), mean, untreated (0) = 1: 1.546
[1]; concentration 5, 12h
  CMA activity (Fig. 1h-j), mean, untreated (0) = 1: 2.277
[1]; concentration 5, 24h
  CMA activity (Fig. 1h-j), mean, untreated (0) = 1: 4.106
[1]; [3]
  CMA activity, mean (Fig. S2c, first panel): 74.2616
  CMA activity, mean (Fig. S2c, second panel): 29.9019
  CMA activity, mean (Fig. S2c, third panel): 74.2616
[1]; concentration 10, 12+12w
  CMA activity (Fig. 1h-j), mean, untreated (0) = 1: 2.775
[1]; concentration 10, 12h
  CMA activity (Fig. 1h-j), mean, untreated (0) = 1: 2.902
[1]; concentration 10, 24h
  CMA activity (Fig. 1h-j), mean, untreated (0) = 1: 6.322
[1]; [4]
  CMA activity, mean (Fig. S2c, first panel): 68.2986
  CMA activity, mean (Fig. S2c, second panel): 41.4399
  CMA activity, mean (Fig. S2c, third panel): 68.2986
[1]; [5]
  CMA activity, mean (Fig. S2c, first panel): 74.8347
  CMA activity, mean (Fig. S2c, second panel): 54.0516
  CMA activity, mean (Fig. S2c, third panel): 74.8347
[1]; concentration 20, 12+12w
  CMA activity (Fig. 1h-j), mean, untreated (0) = 1: 4.843
[1]; concentration 20, 12h
  CMA activity (Fig. 1h-j), mean, untreated (0) = 1: 6.406
[1]; concentration 20, 24h
  CMA activity (Fig. 1h-j), mean, untreated (0) = 1: 12.0736
[1]; [6]
  CMA activity, mean (Fig. S2c, first panel): 71.1281
  CMA activity, mean (Fig. S2c, second panel): 57.8636
  CMA activity, mean (Fig. S2c, third panel): 71.1281
[1]; [7]
  CMA activity, mean (Fig. S2c, first panel): 76.3164
  CMA activity, mean (Fig. S2c, second panel): 40.4368
  CMA activity, mean (Fig. S2c, third panel): 76.3164
[1]; concentration 30, 12+12w
  CMA activity (Fig. 1h-j), mean, untreated (0) = 1: 9.0956
[1]; concentration 30, 12h
  CMA activity (Fig. 1h-j), mean, untreated (0) = 1: 8.564
[1]; concentration 30, 24h
  CMA activity (Fig. 1h-j), mean, untreated (0) = 1: 12.4798
[1]; [8]
  CMA activity, mean (Fig. S2c, first panel): 78.3071
  CMA activity, mean (Fig. S2c, second panel): 58.9165
  CMA activity, mean (Fig. S2c, third panel): 78.3071
[1]; [9]
  CMA activity, mean (Fig. S2c, first panel): 53.1619
  CMA activity, mean (Fig. S2c, second panel): 68.5848
  CMA activity, mean (Fig. S2c, third panel): 53.1619
[1]; fluorescent CMA reporter in mouse fibroblasts, basal and inducible CMA
  CMA activation compared with AR7: > 40 % CMA of AR7
[1]; mouse fibroblasts
  toxicity in cells: without noticeable toxicity
[2]; concentration 0.2
  CMA activity, mean relative to concentration 0 = 1 (Fig. S2b): 0.9934
[2]; concentration 2
  CMA activity, mean relative to concentration 0 = 1 (Fig. S2b): 0.9832
[2]; concentration 5
  CMA activity, mean relative to concentration 0 = 1 (Fig. S2b): 3.155
[2]; concentration 10
  CMA activity, mean relative to concentration 0 = 1 (Fig. S2b): 2.605
